According to PMC5218480 (PLoS ONE, 2017):

Test system: MV-4-11 cells
Assay: Gene expression microarray analysis (Affymetrix PrimeView) and GSEA
Assay type: cell-based, human
Set-up: RFU PODN (11730768_x_at) / Fold change /veh PODN (11730768_x_at) / RFU LINC00158 (11744669_a_at) / Fold change /veh LINC00158 (11744669_a_at) / RFU DUSP10 (11751237_a_at) / Fold change /veh DUSP10 (11751237_a_at) / RFU ID3 (11757404_x_at) / Fold change /veh ID3 (11757404_x_at) / RFU PLEKHG5 (11737974_s_at) / Fold change /veh PLEKHG5 (11737974_s_at) / RFU LRRC4B (11730491_at) / Fold change /veh LRRC4B (11730491_at) / RFU GIMAP4 (11747438_a_at) / Fold change /veh GIMAP4 (11747438_a_at) / RFU KRT8 (11758183_x_at) / Fold change /veh KRT8 (11758183_x_at) / RFU CNN1 (11734310_a_at) / Fold change /veh CNN1 (11734310_a_at) / RFU VPS37D (11726825_at) / Fold change /veh VPS37D (11726825_at) / RFU C10orf10 (11716522_x_at) / Fold change /veh C10orf10 (11716522_x_at) / RFU KIR2DL2 /// KIR2DL4 /// KIR2DL5A /// KIR2DL5B /// KIR2DS1 /// KIR2DS2 /// KIR2DS3 /// KIR2DS4 /// KIR3DL3 /// KIR3DL3 /// KIR3DS1 (11738374_at) / Fold change /veh KIR2DL2 /// KIR2DL4 /// KIR2DL5A /// KIR2DL5B /// KIR2DS1 /// KIR2DS2 /// KIR2DS3 /// KIR2DS4 /// KIR3DL3 /// KIR3DL3 /// KIR3DS1 (11738374_at) / RFU C1QL1 (11718748_at) / Fold change /veh C1QL1 (11718748_at) / RFU TMPRSS4 (11747572_a_at) / Fold change /veh TMPRSS4 (11747572_a_at) / RFU HAMP (11756126_x_at) / Fold change /veh HAMP (11756126_x_at) / RFU RNFT2 (11725882_a_at) / Fold change /veh RNFT2 (11725882_a_at) / RFU NR4A2 (11747474_a_at) / Fold change /veh NR4A2 (11747474_a_at) / RFU ABCC12 (11746883_a_at) / Fold change /veh ABCC12 (11746883_a_at) / RFU TMEM136 (11760407_x_at) / Fold change /veh TMEM136 (11760407_x_at) / RFU CLDN22 /// WWC2 (11732394_at) / Fold change /veh CLDN22 /// WWC2 (11732394_at) / RFU HLA-DPB1 (11760878_x_at) / Fold change /veh HLA-DPB1 (11760878_x_at) / RFU SPINT1 (11716480_a_at) / Fold change /veh SPINT1 (11716480_a_at) / RFU GAP43 (11754022_s_at) / Fold change /veh GAP43 (11754022_s_at) / RFU A4GNT (11735810_at) / Fold change /veh A4GNT (11735810_at) / RFU PRB3 (11715151_x_at) / Fold change /veh PRB3 (11715151_x_at) / RFU TUBB4B (11761932_at) / Fold change /veh TUBB4B (11761932_at) / RFU CAPN14 (11732068_a_at) / Fold change /veh CAPN14 (11732068_a_at) / RFU TMCC2 (11721928_a_at) / Fold change /veh TMCC2 (11721928_a_at) / RFU IRGQ (11745062_a_at) / Fold change /veh IRGQ (11745062_a_at) / RFU FAM174B (11720279_a_at) / Fold change /veh FAM174B (11720279_a_at) / RFU TMPRSS4 (11748680_a_at) / Fold change /veh TMPRSS4 (11748680_a_at) / RFU FAM212B (11763350_a_at) / Fold change /veh FAM212B (11763350_a_at) / RFU PLEKHG5 (11743358_a_at) / Fold change /veh PLEKHG5 (11743358_a_at) / RFU ZSCAN30 (11745921_a_at) / Fold change /veh ZSCAN30 (11745921_a_at) / RFU CMKLR1 (11741424_a_at) / Fold change /veh CMKLR1 (11741424_a_at) / RFU LOC101060620 /// MAPK8IP1 (11723275_at) / Fold change /veh LOC101060620 /// MAPK8IP1 (11723275_at) / RFU SPTSSB (11747773_x_at) / Fold change /veh SPTSSB (11747773_x_at) / RFU PRSS12 (11739890_at) / Fold change /veh PRSS12 (11739890_at) / RFU BIN1 (11741810_x_at) / Fold change /veh BIN1 (11741810_x_at) / RFU WNT11 (11732464_a_at) / Fold change /veh WNT11 (11732464_a_at) / RFU C10orf10 (11716521_a_at) / Fold change /veh C10orf10 (11716521_a_at) / RFU C5orf56 (11738089_at) / Fold change /veh C5orf56 (11738089_at) / RFU CYB561 (11721691_x_at) / Fold change /veh CYB561 (11721691_x_at) / RFU ANKRD19P (11752326_a_at) / Fold change /veh ANKRD19P (11752326_a_at) / RFU OR2T12 /// OR2T33 /// OR2T8 (11738714_s_at) / Fold change /veh OR2T12 /// OR2T33 /// OR2T8 (11738714_s_at) / RFU VCAN (11748164_a_at) / Fold change /veh VCAN (11748164_a_at) / RFU JSRP1 (11732532_at) / Fold change /veh JSRP1 (11732532_at) / RFU KRTAP10-11 (11738290_x_at) / Fold change /veh KRTAP10-11 (11738290_x_at) / RFU MYO3A (11730013_a_at) / Fold change /veh MYO3A (11730013_a_at) / RFU EBF3 (11725865_a_at) / Fold change /veh EBF3 (11725865_a_at) / RFU CAMK2N1 (11719241_x_at) / Fold change /veh CAMK2N1 (11719241_x_at) / RFU C5orf56 (11738088_a_at) / Fold change /veh C5orf56 (11738088_a_at) / RFU OLFML3 (11715873_a_at) / Fold change /veh OLFML3 (11715873_a_at) / RFU LOC100653217 /// NTM (11731650_a_at) / Fold change /veh LOC100653217 /// NTM (11731650_a_at) / RFU MAPK11 (11762145_a_at) / Fold change /veh MAPK11 (11762145_a_at) / RFU FIZ1 (11724087_x_at) / Fold change /veh FIZ1 (11724087_x_at) / RFU OASL (11726364_x_at) / Fold change /veh OASL (11726364_x_at) / RFU SOX15 (11748057_x_at) / Fold change /veh SOX15 (11748057_x_at) / RFU CD79A (11719716_a_at) / Fold change /veh CD79A (11719716_a_at) / RFU HIST1H1D (11736915_at) / Fold change /veh HIST1H1D (11736915_at) / RFU CASKIN2 (11723855_a_at) / Fold change /veh CASKIN2 (11723855_a_at) / RFU LOC730098 (11760151_x_at) / Fold change /veh LOC730098 (11760151_x_at) / RFU OR4N2 (11742367_at) / Fold change /veh OR4N2 (11742367_at) / RFU PRRT2 (11749266_a_at) / Fold change /veh PRRT2 (11749266_a_at) / RFU SNX32 (11753110_a_at) / Fold change /veh SNX32 (11753110_a_at) / RFU CDHR5 (11726645_a_at) / Fold change /veh CDHR5 (11726645_a_at) / RFU RCAN1 (11760418_a_at) / Fold change /veh RCAN1 (11760418_a_at) / RFU FAM167A (11723789_a_at) / Fold change /veh FAM167A (11723789_a_at) / RFU FAM26E (11764081_at) / Fold change /veh FAM26E (11764081_at) / RFU ISYNA1 (11749810_s_at) / Fold change /veh ISYNA1 (11749810_s_at) / RFU ACY1 (11761880_at) / Fold change /veh ACY1 (11761880_at) / RFU 11764098_at / Fold change /veh 11764098_at / RFU SAMD14 (11745864_x_at) / Fold change /veh SAMD14 (11745864_x_at) / RFU NPB (11741838_a_at) / Fold change /veh NPB (11741838_a_at) / RFU TMPRSS6 (11731388_a_at) / Fold change /veh TMPRSS6 (11731388_a_at) / RFU KRTAP10-2 (11738614_at) / Fold change /veh KRTAP10-2 (11738614_at) / RFU ARHGAP8 /// PRR5-ARHGAP8 (11727945_x_at) / Fold change /veh ARHGAP8 /// PRR5-ARHGAP8 (11727945_x_at) / RFU KRTAP5-7 /// NADSYN1 (11734609_at) / Fold change /veh KRTAP5-7 /// NADSYN1 (11734609_at) / RFU RASL12 (11751679_a_at) / Fold change /veh RASL12 (11751679_a_at) / RFU CDKN2B (11736163_a_at) / Fold change /veh CDKN2B (11736163_a_at) / RFU PRF1 (11729649_at) / Fold change /veh PRF1 (11729649_at) / RFU, ZNF638 /// ZNF638-IT1 / Fold change vs veh, ZNF638 /// ZNF638-IT1 / RFU, PANK3 / Fold change vs veh, PANK3 / RFU, SH3YL1 / Fold change vs veh, SH3YL1 / RFU, ZEB2 / Fold change vs veh, ZEB2 / RFU, NRIP1 / Fold change vs veh, NRIP1 / RFU, PTTG1IP / Fold change vs veh, PTTG1IP / RFU, CAPN2 / Fold change vs veh, CAPN2 / RFU, MED14 / Fold change vs veh, MED14 / RFU, SNORA58 / Fold change vs veh, SNORA58 / RFU, C1orf63 / Fold change vs veh, C1orf63 / RFU, LRRFIP1 / Fold change vs veh, LRRFIP1 / RFU, NDUFAF7 / Fold change vs veh, NDUFAF7 / RFU, SLC12A2 / Fold change vs veh, SLC12A2 / RFU, IBTK / Fold change vs veh, IBTK / RFU, ESF1 / Fold change vs veh, ESF1 / Fold change vs veh, TMEM50B / RFU, TAOK1 / Fold change vs veh, TAOK1 / RFU, ACBD3 / Fold change vs veh, ACBD3 / RFU, TMA16 / Fold change vs veh, TMA16 / RFU, RWDD3 / Fold change vs veh, RWDD3 / RFU, BCAT1 / Fold change vs veh, BCAT1 / RFU, EDEM3 / Fold change vs veh, EDEM3 / RFU, TMEM33 / Fold change vs veh, TMEM33 / RFU, WDR75 / Fold change vs veh, WDR75 / RFU, AHCTF1 / Fold change vs veh, AHCTF1 / RFU, TFRC / Fold change vs veh, TFRC / RFU, ZDHHC17 / Fold change vs veh, ZDHHC17 / RFU, NOM1 / Fold change vs veh, NOM1 / RFU, ARL8B / Fold change vs veh, ARL8B / RFU, ZBTB11 / Fold change vs veh, ZBTB11 / RFU, TAMM41 / Fold change vs veh, TAMM41 / RFU, KIAA1704 /// LOC100996395 / Fold change vs veh, KIAA1704 /// LOC100996395 / RFU, ING1 / Fold change vs veh, ING1 / RFU, TRMT61B / Fold change vs veh, TRMT61B / RFU, FUBP3 / Fold change vs veh, FUBP3 / RFU, TP53 / Fold change vs veh, TP53 / RFU, TNKS2 / Fold change vs veh, TNKS2 / RFU, ZFP14 / Fold change vs veh, ZFP14 / RFU, ACTR2 / Fold change vs veh, ACTR2 / RFU, PPP3R1 / Fold change vs veh, PPP3R1 / RFU, PIK3R1 / Fold change vs veh, PIK3R1 / RFU, HNRNPA1 / Fold change vs veh, HNRNPA1 / RFU, RNF170 / Fold change vs veh, RNF170 / RFU, ZNF28 / Fold change vs veh, ZNF28 / RFU, RNGTT / Fold change vs veh, RNGTT / RFU, OGT / Fold change vs veh, OGT / RFU, BRD1 / Fold change vs veh, BRD1 / RFU, MARS / Fold change vs veh, MARS / RFU, ZNF655 / Fold change vs veh, ZNF655 / RFU, FAHD1 / Fold change vs veh, FAHD1 / RFU, BDP1 / Fold change vs veh, BDP1 / RFU, LRRCC1 / Fold change vs veh, LRRCC1 / RFU, ARID1A / Fold change vs veh, ARID1A / RFU, ZNF146 / Fold change vs veh, ZNF146 / RFU, ZNF330 / Fold change vs veh, ZNF330 / RFU, GPN3 / Fold change vs veh, GPN3 / RFU, C9orf123 / Fold change vs veh, C9orf123 / RFU, N4BP2L2 / Fold change vs veh, N4BP2L2 / RFU, ARFIP1 / Fold change vs veh, ARFIP1 / RFU, FAM179B / Fold change vs veh, FAM179B / RFU, BCL10 / Fold change vs veh, BCL10 / RFU, UHRF1BP1L / Fold change vs veh, UHRF1BP1L / RFU, BET1 / Fold change vs veh, BET1 / RFU, CNOT2 / Fold change vs veh, CNOT2 / RFU, ZNF268 / Fold change vs veh, ZNF268 / Fold change vs veh, ZNF507 / RFU, DGCR2 / Fold change vs veh, DGCR2 / RFU, WDSUB1 / Fold change vs veh, WDSUB1 / Fold change vs veh, HSP90B1 /// MIR3652 / RFU, ADSS / Fold change vs veh, ADSS / RFU, GK / Fold change vs veh, GK / RFU, ZNF148 / Fold change vs veh, ZNF148 / RFU, TAF9 / Fold change vs veh, TAF9 / RFU, SLC1A5 / Fold change vs veh, SLC1A5 / RFU, SLMO2 / Fold change vs veh, SLMO2 / RFU, ABCC4 / Fold change vs veh, ABCC4 / RFU, LOC101060439 /// RAP1B / Fold change vs veh, LOC101060439 /// RAP1B / RFU, RFX7 / Fold change vs veh, RFX7 / RFU, GTPBP10 / Fold change vs veh, GTPBP10 / RFU, CNEP1R1 / Fold change vs veh, CNEP1R1 / RFU, BIVM-ERCC5 /// ERCC5 / Fold change vs veh, BIVM-ERCC5 /// ERCC5 / RFU, ILF3 / Fold change vs veh, ILF3 / RFU 11762660_at / Fold change /veh 11762660_at / RFU VCAN (11757783_s_at) / Fold change /veh VCAN (11757783_s_at) / RFU DDX43 (11728927_at) / Fold change /veh DDX43 (11728927_at) / RFU KRT8 (11758188_x_at) / Fold change /veh KRT8 (11758188_x_at) / RFU NKD1 (11759106_at) / Fold change /veh NKD1 (11759106_at) / RFU SRD5A1 (11742802_a_at) / Fold change /veh SRD5A1 (11742802_a_at) / RFU TPSAB1 /// TPSB2 (11721975_s_at) / Fold change /veh TPSAB1 /// TPSB2 (11721975_s_at) / RFU GSTM3 (11746129_a_at) / Fold change /veh GSTM3 (11746129_a_at) / RFU IL23R (11737362_x_at) / Fold change /veh IL23R (11737362_x_at) / RFU TMEM51 (11727254_a_at) / Fold change /veh TMEM51 (11727254_a_at) / RFU PIWIL2 (11732686_x_at) / Fold change /veh PIWIL2 (11732686_x_at) / RFU ORM1 (11744905_x_at) / Fold change /veh ORM1 (11744905_x_at) / RFU CCDC152 (11743942_at) / Fold change /veh CCDC152 (11743942_at) / RFU ECM1 (11717891_a_at) / Fold change /veh ECM1 (11717891_a_at) / RFU IL23R (11748794_a_at) / Fold change /veh IL23R (11748794_a_at) / RFU TNFAIP8L3 (11732012_x_at) / Fold change /veh TNFAIP8L3 (11732012_x_at) / RFU MBOAT4 (11741988_at) / Fold change /veh MBOAT4 (11741988_at) / RFU 11764193_at / Fold change /veh 11764193_at / RFU TMEM53 (11763286_at) / Fold change /veh TMEM53 (11763286_at) / RFU MAGEB2 (11727129_at) / Fold change /veh MAGEB2 (11727129_at) / RFU TMEM200A (11744735_a_at) / Fold change /veh TMEM200A (11744735_a_at) / RFU CCDC152 (11751479_a_at) / Fold change /veh CCDC152 (11751479_a_at) / RFU FAM211A (11726209_a_at) / Fold change /veh FAM211A (11726209_a_at) / RFU RGS16 (11746705_a_at) / Fold change /veh RGS16 (11746705_a_at) / RFU VCAN (11755009_s_at) / Fold change /veh VCAN (11755009_s_at) / RFU RHOB (11743442_s_at) / Fold change /veh RHOB (11743442_s_at) / RFU RGS16 (11720943_a_at) / Fold change /veh RGS16 (11720943_a_at) / RFU RGS16 (11720944_at) / Fold change /veh RGS16 (11720944_at) / RFU, VPS4B / Fold change vs veh, VPS4B / RFU, CREB1 / Fold change vs veh, CREB1 / RFU, DNAJC13 / Fold change vs veh, DNAJC13 / RFU, GNAQ / Fold change vs veh, GNAQ / RFU, CDK5R1 / Fold change vs veh, CDK5R1 / RFU, ZRANB3 / Fold change vs veh, ZRANB3 / RFU, CUL4A / Fold change vs veh, CUL4A / RFU, CCNY / Fold change vs veh, CCNY / RFU, UFL1 / Fold change vs veh, UFL1 / RFU, COG3 / Fold change vs veh, COG3 / RFU, DIAPH2 / Fold change vs veh, DIAPH2 / RFU, SKA2 / Fold change vs veh, SKA2 / RFU, AFF3 / Fold change vs veh, AFF3 / RFU, LMF1 / Fold change vs veh, LMF1 / RFU, IPO11 / Fold change vs veh, IPO11 / RFU, DFFB / Fold change vs veh, DFFB / RFU, FOXP1 / Fold change vs veh, FOXP1 / RFU, CARD8 / Fold change vs veh, CARD8 / RFU, STRN3 / Fold change vs veh, STRN3 / RFU, ADK / Fold change vs veh, ADK / RFU, RASSF2 / Fold change vs veh, RASSF2 / RFU, WIPF1 / Fold change vs veh, WIPF1 / RFU, LARP1B / Fold change vs veh, LARP1B / RFU, RASA1 / Fold change vs veh, RASA1 / RFU, RB1 / Fold change vs veh, RB1 / RFU, PPFIA1 / Fold change vs veh, PPFIA1 / RFU, MAT2A / Fold change vs veh, MAT2A / RFU, CCT5 / Fold change vs veh, CCT5 / RFU, WDR92 / Fold change vs veh, WDR92 / RFU, CUX1 / Fold change vs veh, CUX1 / RFU, TTC7A / Fold change vs veh, TTC7A / RFU, TMEM135 / Fold change vs veh, TMEM135 / RFU, DEPTOR / Fold change vs veh, DEPTOR / RFU, CPM / Fold change vs veh, CPM / RFU, DNAJB6 / Fold change vs veh, DNAJB6 / RFU, CACNA2D3 / Fold change vs veh, CACNA2D3 / RFU, DTX4 / Fold change vs veh, DTX4 / RFU, TFCP2 / Fold change vs veh, TFCP2 / RFU, GMCL1 /// GMCL1P1 / Fold change vs veh, GMCL1 /// GMCL1P1 / RFU, AEBP2 / Fold change vs veh, AEBP2 / RFU, SNHG1 /// SNORD22 /// SNORD25 /// SNORD26 /// SNORD27 /// SNORD28 /// SNORD29 /// SNORD31 / Fold change vs veh, SNHG1 /// SNORD22 /// SNORD25 /// SNORD26 /// SNORD27 /// SNORD28 /// SNORD29 /// SNORD31 / Fold change (Aza/veh), C12orf56 (ProbeSet 11735607_a_at) / Fold change (ACY-1035/veh), C12orf56 (ProbeSet 11735607_a_at) / Fold change (Aza/veh), FGFR1OP (ProbeSet 11751329_s_at) / Fold change (ACY-1035/veh), FGFR1OP (ProbeSet 11751329_s_at) / Fold change (Aza/veh), VPS36 (ProbeSet 11739960_a_at) / Fold change (ACY-1035/veh), VPS36 (ProbeSet 11739960_a_at) / RFU SYPL1 (11715823_x_at) / Fold change /veh SYPL1 (11715823_x_at) / RFU IGFBP7 (11715501_s_at) / Fold change /veh IGFBP7 (11715501_s_at) / RFU REEP3 (11722064_at) / Fold change /veh REEP3 (11722064_at) / RFU IGLL1 (11728026_x_at) / Fold change /veh IGLL1 (11728026_x_at): dose or concentration left out as unconfirmed
Conditions: ProbeSet 11762504_a_at; LIST D

Nc1ccc(-c2cccs2)cc1NC(=O)c1ccc2c(c1)cc(C1CC1)n2CCN1CCOCC1 [ACY-1035]
Fold change vs veh, ZRANB3: 0.86
